How the values were obtained:
[1] = system: human and murine cell lines; assay: Anti-glioma activity in vitro (Figure 1 b); format: cell-based
Experimental: The inventors seeded 5,000 or 10,000 cells, respectively, on day one, treated the next day in serum-free medium and incubated for up to 72 h. Subsequently, they measured cell viability using CellTiterBlue reagent (Promega, Madison, WI, US) according to manufacturer's instructions with a GloMax (Promega, Madison, Wl, US). The inventors normalized measurements to untreated cells. Cells were seeded the day before treatment. The inventors treated the cells in the indicated concentrations in serum-free medium for 24 h after which they changed the medium back to medium containing FCS, followed by a 7 to 21 day incubation time. The inventors used crystal violet (0.5% w/v) to stain colonies and analyzed the area coverage using the ImageJ software Plugln ColonyArea. Measurements were normalized to respective vehicle control wells.

[2] = system: primary cultures TUE-PC1-6; assay: Combination treatment in primary glioma cultures (Bliss independence Criterion); format: cell-based; conditions: plus AZD6738
Excerpt: Primary tumor tissue was obtained from fresh residual material upon resection at the Department of Neurosurgery, University Hospital Tübingen. The inventors cut the tissue in small pieces, washed it using Hanks Balanced Salt Solution (HBSS) (Gibco, Carlsbad, CA, US) and digested it by collagenase and dispase (Roche, Basel, CH). To remove any remaining erythrocytes, they used red blood cell lysis buffer (Sigma Aldrich, St. Louis, MO, US). The inventors then cultured the cells as GS cells in Neurobasal®-A medium. They first evaluated AZD6738 sensitivity of each primary culture and selected two concentrations. […] To evaluate combination treatment analyses, the inventors leveraged the Bliss independence Criterion.
(§1) The inventors seeded 5,000 or 10,000 cells, respectively, on day one, treated the next day in serum-free medium and incubated for up to 72 h. Subsequently, they measured cell viability using CellTiterBlue reagent (Promega, Madison, WI, US) according to manufacturer's instructions with a GloMax (Promega, Madison, Wl, US). The inventors normalized measurements to untreated cells.

[3] = system: LN229, LNZ308, GS-2 and GS-9 cells; assay: 4x4 synergy map assay (ZIP synergy score), all four cell lines; format: cell-based; conditions: combined with AZD6738 (ATRi); across all four cell lines
Experimental: as §1
The inventors leveraged an acute cytotoxicity assay workflow to evaluate potential interaction partners for AZD6738 which were derived from transcriptomic, proteomic and genome-wide CRISPR/Cas9 genetic dependency analyses. In a 1×1/IC50×IC50 set-up, they treated LN229 and LNZ308 cells in serum free medium for 72 h. The inventors used the original Bliss Independence Criterion to evaluate synergism potential. For this, a predicted value for additivity, derived from the product of the two monotherapy settings, was compared to the actual measurement of the combined treatment of the two drugs. […] The inventors used the R package synergyfinder with zero interaction potential (ZIP) synergy scores calculated from 4x4 concentration matrices for each tested combination and the average across the plate; see He et al. (2018); Methods for High-throughput Drug Combination Screening and Synergy Scoring. […]

[4] = system: LN229-GFP cells; assay: Zebrafish embryo xenotransplant, tumor area; format: in vivo, wildtype zebrafish embryos; conditions: monotherapy, 48 h of treatment; not significant as compared to the DMSO control
Experimental: The inventors used zebrafish wildtype (wt) TE embryos younger than 5 days post-fertilization (dpf). […] Labelled cells were suspended in PBS at 2*10^5 cells/µL and approx. 1 nL cell suspension was injected into the midbrain region of 24 hpf embryos. The inventors incubated the embryos at 28°C for 1 h and afterwards divided them into treatment groups. Only successfully transplanted embryos were used for further experiments. Then, the inventors applied the treatments as indicated in the respective figures and incubated that for 48 h at 35°C. For evaluation of tumor size, they imaged embryos on a Nikon Stereomicroscope (SMZ18) with the NIS Element software. The inventors assessed the tumor surface areas using Imaris (version 9.2.0).

[5] = system: LN229 and LNZ308 cells; assay: 1x1 (IC50xIC50) pre-selection screen, acute cytotoxicity assay, Bliss Independence Criterion; format: cell-based, human; conditions: combined with AZD6738, 1x1 (IC50xIC50), 72 h, serum free medium
Experimental: as §1
The inventors leveraged an acute cytotoxicity assay workflow to evaluate potential interaction partners for AZD6738 which were derived from transcriptomic, proteomic and genome-wide CRISPR/Cas9 genetic dependency analyses. In a 1×1/IC50×IC50 set-up, they treated LN229 and LNZ308 cells in serum free medium for 72 h. The inventors used the original Bliss Independence Criterion to evaluate synergism potential. For this, a predicted value for additivity, derived from the product of the two monotherapy settings, was compared to the actual measurement of the combined treatment of the two drugs. […] BMC Systems Biology 4: 50. Subsequently, the inventors subjected LN229, LNZ308, GS-2 and GS-9 cells to 4x4 synergy map assays again in an acute cytotoxicity assay workflow. The inventors used the R package synergyfinder with zero interaction potential (ZIP) synergy scores calculated from 4x4 concentration matrices for each tested combination and the average across the plate; see He et al. (2018); Methods for High-throughput Drug Combination Screening and Synergy Scoring. In Cancer Systems Biology: Methods and Protocols, von Stechow (ed) pp 351-398. New York, NY: Springer New York.

[6] = system: LN229 cells; assay: 4x4 synergy map assay (ZIP synergy score); format: cell-based, human; conditions: combined with AZD6738 (ATRi)
Experimental: as §1
(§2) The inventors leveraged an acute cytotoxicity assay workflow to evaluate potential interaction partners for AZD6738 which were derived from transcriptomic, proteomic and genome-wide CRISPR/Cas9 genetic dependency analyses. […] The inventors used the original Bliss Independence Criterion to evaluate synergism potential. For this, a predicted value for additivity, derived from the product of the two monotherapy settings, was compared to the actual measurement of the combined treatment of the two drugs. […] BMC Systems Biology 4: 50. Subsequently, the inventors subjected LN229, LNZ308, GS-2 and GS-9 cells to 4x4 synergy map assays again in an acute cytotoxicity assay workflow. […] New York, NY: Springer New York.

[7] = system: LNZ308; assay: 4x4 synergy map assay (ZIP synergy score); format: cell-based, human; conditions: combined with AZD6738 (ATRi)
Experimental: as §1, §2

[8] = system: GS-9; assay: 4x4 synergy map assay (ZIP synergy score); format: cell-based; conditions: combined with AZD6738 (ATRi)
Experimental: as §1, §2

[9] = system: GS-2 cells; assay: 4x4 synergy map assay (ZIP synergy score); format: cell-based; conditions: combined with AZD6738 (ATRi)
Experimental: as §1, §2

CNCc1ccc(-c2cc(-c3nc(-c4ccc(S(=O)(=O)C(C)C)cc4)cnc3N)on2)cc1 [Berzosertib, berzosertib]
anti-glioma activity in vitro [1]: significant anti-glioma activity

N.N.[Cl][Pt][Cl] [cisplatin, cis-diammine dichloridoplatin]
combination efficacy (Bliss Independence Criterion) ([2]; all six primary cultures): synergistic read-outs
ZIP synergy score (synergism signature) [3]: synergism signature
tumor area [4]: modest decrease

COc1cccc2c1C(=O)c1c(O)c3c(c(O)c1C2=O)C[C@@](O)(C(=O)CO)C[C@@H]3O[C@H]1C[C@H](N)[C@H](O)[C@H](C)O1 [doxorubicin]
Bliss synergy scores [5]: top scoring hits

COc1cc([C@@H]2c3cc4c(cc3[C@@H](O[C@@H]3O[C@@H]5CO[C@@H](C)O[C@H]5[C@H](O)[C@H]3O)[C@H]3COC(=O)[C@H]23)OCO4)cc(OC)c1O [etoposide, Etoposide]
Bliss synergy scores [5]: top scoring hits

CO[C@H]1C[C@@H]2CC[C@@H](C)[C@@](O)(O2)C(=O)C(=O)N2CCCC[C@H]2C(=O)O[C@H]([C@H](C)C[C@@H]2CC[C@@H](OCCO)[C@H](OC)C2)CC(=O)[C@H](C)/C=C(\C)[C@@H](O)[C@@H](OC)C(=O)[C@H](C)C[C@H](C)/C=C/C=C/C=C/1C [everolimus]
Bliss synergy scores [5]: top candidates

COc1ccc2c(c1)[nH]c1c(C)nccc12 [harmine]
Bliss synergy scores [5]: top scoring hits

NC(=O)NO [hydroxyurea, hydroxycarbamide]
combination efficacy (Bliss Independence Criterion) ([2]; TUE-PC1, TUE-PC4, TUE-PC5): not
combination efficacy (Bliss Independence Criterion) ([2]; TUE-PC2, TUE-PC3 and TUE-PC6): synergistic readout
Bliss synergy scores [5]: top scoring hits
ZIP synergy score (synergism signature) [3]: synergism signature

O=C(c1cc(Cc2n[nH]c(=O)c3ccccc23)ccc1F)N1CCN(C(=O)C2CC2)CC1 [olaparib, Olaparib]
ZIP synergy score (interaction with ATRi) [6]: synergistic interaction
ZIP synergy score (interaction with ATRi) [7]: do not
Bliss synergy scores [5]: top scoring hits
ZIP synergy score (interaction with ATRi) [8]: do not
ZIP synergy score (interaction with ATRi) [9]: synergistic interaction

O=c1sn(-c2cccc3ccccc23)c(=O)n1Cc1ccccc1 [tideglusib, Tideglusib]
Bliss synergy scores [5]: top scoring hits

O=C(CCCCCCC(=O)Nc1ccccc1)NO [vorinostat, suberoylanilide hydroxamic acid]
Bliss synergy scores [5]: top scoring hits
